Reference: US20230036041A1, “SORTILIN BINDING CONJUGATE COMPOUNDS, COMPOSITIONS AND USES THEREOF FOR TREATING CANCER” (THERATECHNOLOGIES INC., priority 2019, published 2023)
Where two headings read alike, the source gives them in different places. Non-standard residues stand in square brackets, D forms with d. Residues, ends and D or L forms follow the SMILES beside them. *: point of attachment. X1 = CC(=O)O[C@@]12CO[C@@H]1C[C@H](O)[C@@]1(C)C(=O)[C@H](O)C3=C(C)[C@@H](OC(=O)[C@H](OC(=O)CCC(=O)*)[C@@H](NC(=O)OC(C)(C)C)c4ccccc4)C[C@@](O)([C@@H](OC(=O)c4ccccc4)[C@H]21)C3(C)C; Nle = CCCC[C@H](N)C(=O)O

Tests used:
Format in all cases: in vivo, mice
[1] = test system: HT29 colorectal xenograft tumors; assay: colorectal cancer xenograft model (HT-29); conditions: low and high doses, −20% endpoint limit
Protocol: (§1) Briefly, stock solution of formulated TH1902 was prepared as sterile aliquots of 10 mg/mL frozen liquid solutions (see below). On the day of animal dosing, frozen aliquots were thawed 30 minutes at room temperature then diluted with sterile 5% dextrose injection, USP (D5W) to the desired concentration for injection (i.e. typically 5.4 or 1.35 mg/mL).
(§2) TH1902 frozen stock solution were prepared as follow: • 1. Make the TH1902 diluent solution (Diluent) the day before the solubilization. Diluent: 10% Tween™ 80 in D5W USP (w/v) with 0.04% of formic acid (v/v), ˜pH 2.9. Leave solution at room temperature until TH1902 solubilization (next day). • 2. Weigh 60 mg of TH1902 API into a 14 ml glass vial with screw caps. Adjust TH1902 weights to reflect TH1902 purity according to the certificate of analysis. • 3. Add 90% of diluent solution needed to prepare the TH1902 10 mg/ml stock solution. • 4. Swirl the content of the bottle to form opaque mixture and place a stir bar. • 5. Place bottle in the heating apparatus (glass water bath and mount for holding vial with thermometer and stir bar on a digital heating plate). Begin mixing the content of the bottle. • 6. […] Transfer the formulation to a graduated glass cylinder and bring to final calculated volume with diluent solution. • 9. […] Perform UPLC analysis against a TH1902 standard curve for quantification and purity assessment. • 11. […]

[2] = test system: murine B16-F10 cancer cells; assay: syngeneic melanoma tumor model (B16-F10); conditions: for body weights, dose-response study: equivalent doses, −20% endpoint limit
Protocol: as §1
TH1902 frozen stock solution were prepared as follow: • 1. Make the TH1902 diluent solution (Diluent) the day before the solubilization. Diluent: 10% Tween™ 80 in D5W USP (w/v) with 0.04% of formic acid (v/v), ˜pH 2.9. Leave solution at room temperature until TH1902 solubilization (next day). • 2. Weigh 60 mg of TH1902 API into a 14 ml glass vial with screw caps. Adjust TH1902 weights to reflect TH1902 purity according to the certificate of analysis. • 3. Add 90% of diluent solution needed to prepare the TH1902 10 mg/ml stock solution. • 4. Swirl the content of the bottle to form opaque mixture and place a stir bar. • 5. Place bottle in the heating apparatus (glass water bath and mount for holding vial with thermometer and stir bar on a digital heating plate). Begin mixing the content of the bottle. • 6. Gradually increase the temperature of water bath in increments of 5° C. every 30 minutes until mixture turns clear (temperature ramping up to 45° C. over a period of time of about 165 to 180 minutes). Record water bath temperature every 15 minutes. • 7. Leave at room temperature for 30 minutes with gentle swirling (cool down). Measure pH. Adjust pH to 4.3±0.2 using dilute NaOH (0.1 N or less). • 8. Transfer the formulation to a graduated glass cylinder and bring to final calculated volume with diluent solution. • 9. Transfer back into the 14 ml glass vial and mix slowly for 5 minutes at room temperature. Measure pH. pH should be 4.3±0.2. • 10. Filter sterilize with a PES 0.22 μm membrane into a new and sterile 14 ml glass vial. Check the pH again. Perform UPLC analysis against a TH1902 standard curve for quantification and purity assessment. • 11. Freeze aliquots of TH1902 stock solution at −80° C. (0.5 mL per aliquot in 4 mL glass vials).
For the syngeneic B16-F10 melanoma tumor model, normal immunocompetent mice were implanted subcutaneously with murine B16-F10 cancer cells. […]
For FIG. 28A, immunocompetent mice bearing B16-F10 xenografts were repeatedly injected intravenously (arrows indicate injection days) with vehicle or with vehicle containing equivalent of docetaxel (15 mg/kg/week) or TH1902 (35 mg/kg/week). In FIG. 28B, the effects of TH1902 and docetaxel on tumor progression at day-14 are presented by subtracting the initial tumor volumes at day-0 to the tumor volumes measured at day-14 when tumors of the vehicle group reached the endpoint limits. […]

[3] = mouse plasma levels after IV bolus injection
Protocol: In addition, TH1902 and docetaxel mouse plasma levels were assessed in TH1902-treated mice.

[4] = test system: AN3-CA endometrial xenograft tumor
Protocol: as §1, §2
Three human sortilin-positive gynecological cancer cell lines (ovary: ES-2 and SKOV-3/Luc, endometrial: AN3-CA) were used for to assess the chemotherapeutic activity of TH1902 in vivo using xenograft models in immunodeficient mice. […] Body weights of the mice administered with docetaxel, TH1902 or vehicle were monitored as a gross indicator of morbidity.
The effect of TH1902 or docetaxel on the endometrial AN3-CA xenograft tumor model is shown on FIG. 24. […] In FIG. 24B effects of TH1902 and docetaxel on tumor progression at day-14 are presented by subtracting the initial tumor volumes at day-0 to the tumor volumes measured at day 14. […]

SK-MEL-28 xenografts = test system: SK-MEL-28 xenografts
Protocol: as §1
as §2, with “6. Gradually increase the temperature of water bath in increments of 5° C. every 30 minutes until mixture turns clear (temperature ramping up to 45° C. over a period of time of about 165 to 180 minutes).” for “6.”
Two of the sortilin-expressing melanoma cancer cell lines (SK-MEL-28 and B16-F10) were used to monitor whether TH1902 impeded the growth of the cells when administered at 35 mg/kg/week, versus unconjugated docetaxel at 15 mg/kg/week. This is the maximum tolerated dose (MTD) for free docetaxel, and the TH1902 formulation contains the equivalent quantity of docetaxel within this peptide drug conjugate. […] This difference was quantified when the control group reached the tumor volume endpoint at day-42. […]

## CC(=O)O[C@@]12CO[C@@H]1C[C@H](O)[C@@]1(C)C(=O)[C@H](O)C3=C(C)[C@@H](OC(=O)[C@H](O)[C@@H](NC(=O)OC(C)(C)C)c4ccccc4)C[C@@](O)([C@@H](OC(=O)c4ccccc4)[C@H]21)C3(C)C [docetaxel]
[1]
  body weights: within the acceptable range
[2]; TH1902 23 mg/kg/bi-weekly, docetaxel 10 mg/kg/bi-weekly
  tumor growth at the highest dose, dose-response study: only a minor impact on tumor growth
[2]
  body weights, dose-response study: within the acceptable range
[3]; administered as a free drug
  docetaxel concentration that can be measured in plasma: 15-20%
[4]; equivalent dose of docetaxel 15 mg/kg/week (TH1902 35 mg/kg/week), halved after 2 cycles
  tumor growth, high dose: complete arrest tumor growth arrest
[4]; mouse, in vivo
  body weights: greater evidence of weight loss
SK-MEL-28 xenografts; TH1902 35 mg/kg/week, docetaxel 15 mg/kg/week, endpoint day-42, FIG. 27
  tumor growth / tumor volumes: inhibited tumor growth
SK-MEL-28 xenografts; mouse, in vivo
  body weight of mice: remained within −20% endpoint limit

## CCCC[C@H](NC(=O)[C@H](CC(N)=O)NC(=O)[C@H](CCCNC(=N)N)NC(=O)[C@@H](NC(=O)CNC(=O)[C@H](C)NC(=O)[C@H](CCCCNC(=O)CCC(=O)O[C@@H](C(=O)O[C@H]1C[C@@]2(O)[C@@H](OC(=O)c3ccccc3)[C@@H]3[C@]4(OC(C)=O)CO[C@@H]4C[C@H](O)[C@@]3(C)C(=O)[C@H](O)C(=C1C)C2(C)C)[C@@H](NC(=O)OC(C)(C)C)c1ccccc1)NC(=O)[C@H](C)NC(=O)[C@H](CCCNC(=N)N)NC(=O)[C@@H](NC(=O)CNC(C)=O)C(C)C)C(C)C)C(=O)N[C@@H](Cc1ccccc1)C(=O)N[C@@H](CCCCNC(=O)CCC(=O)O[C@@H](C(=O)O[C@H]1C[C@@]2(O)[C@@H](OC(=O)c3ccccc3)[C@@H]3[C@]4(OC(C)=O)CO[C@@H]4C[C@H](O)[C@@]3(C)C(=O)[C@H](O)C(=C1C)C2(C)C)[C@@H](NC(=O)OC(C)(C)C)c1ccccc1)C(=O)N[C@@H](CO)C(=O)N[C@@H](CCC(=O)O)C(=O)N[C@@H](CO)C(=O)N[C@@H](Cc1ccc(O)cc1)C(=O)O [TH1902, Acetyl-GVRAK(docetaxel)AGVRN(Nle)FK(docetaxel)SESY] (Ac-GVRAK(X1)AGVRN[Nle]FK(X1)SESY-OH)
[1]
  body weights: within the acceptable range
[2]; TH1902 35 mg/kg/week
  mouse body weights, first study: without having an impact on mouse body weights
[2]
  body weights, dose-response study: within the acceptable range
[3]; mouse plasma, IV bolus injection 50 mg/kg TH1902
  concentration of docetaxel released from TH1902 in plasma: very low concentration
[3]; mouse plasma, IV bolus injection 50 mg/kg TH1902, FIG. 12
  plasma concentration of TH1902: high plasma concentration
[4]; MTD for docetaxel, TH1902 containing the equivalent quantity of docetaxel
  body weights: retained a fairly constant weight
SK-MEL-28 xenografts; TH1902 35 mg/kg/week, docetaxel 15 mg/kg/week
  body weight of mice: remained within −20% endpoint limit
